According to US7498404B2, “Compositions, methods and uses for a novel family of peptides” (priority 2004, dated 2009):
Marks after values point to notes of the source that are not given here.

How the values were obtained:
[1] = assay type: physicochemical
Gram-positive bacteria = assay: MIC against Gram-positive bacteria; assay type: cell-based; settings: most Gram (+)
Method: (§1) MIC determination assays. Staphylococcal aureus was grown to mid-log phase in LB at 37° C., and diluted by 500-fold with fresh LB and dispensed into 96-well micro-titer plates. Different concentrations of peptides were added, and the micro-titer plates were incubated at 37° C. with shaking. A minimal inhibition concentration (MIC) was determined as the lowest peptide concentration that produced a clear well. All experiments were performed in triplicates, and highly consistent MICs were obtained.
(§2) For Gram (−) the following were the antimicrobial activities observed: E. coli: MIC>20 microgram/ml; Pseudomonas and Salmonella: MIC>100 microgram/ml.

E. coli = assay: MIC against E. coli; assay type: cell-based
Method: as §1, §2

Pseudomonas = assay: MIC against Pseudomonas; assay type: cell-based
Method: as §1, §2

Salmonella = assay: MIC against Salmonella; assay type: cell-based
Method: as §1, §2

S. cerevisiae = assay: Antifungal MIC; assay type: cell-based
Tetrahymena = assay: Anti-protozoal MIC; assay type: cell-based
Broiler Chicken [2] = assay: Growth promoting Studies 1-1 and 1-2 (21-day battery study); assay type: in vivo
straight run broilers [3] = assay: Growth promoting Studies 2-1 and 2-2, mash feed, batteries; assay type: in vivo, chicken
Method: Briefly, the peptide was used in a semi-purified form to study the growth and feed conversion of […] old straight run broilers in batteries (Studies 2-1 and 2-2). Two amounts were tested against a feed control, peptide at 6 ppm and peptide at 12 ppm, 12 repetitions were carried out per treatment with 4 birds per pen. The diet used in the study was as follows.

straight run broilers [4] = assay: Growth promoting Studies 3-1 and 3-2, pelleted starter feed, batteries; assay type: in vivo, chicken
From the text: Eight (8) study repetitions per treatment were used, again with 4 birds per pen.

Broiler Chicken [5] = assay: Growth promoting Studies 4-1 and 4-2 with direct coccidial challenge; assay type: in vivo
[6] = Broiler floor pen trial, 42 days, natural colibacillosis challenge; assay type: in vivo, chicken
Method: A broiler floor pen trial to compare the performance of a new anti-microbial designated for this project as BT1583 alone and in combination with the widely used coccidiostat monensin (MON) to MON fed alone, MON in combination with the also widely used antimicrobial Bacitracin MD (BMD) and BMD alone.
The following levels of each treatment were evaluated:
The study design included 10 pens per treatment and 40 birds per pen housed on day of hatch. Two basal corn-soy based diets of decreasing protein (approximately 23 to 20%) and increasing metabolizable energy (approximately 1400 to 1455 kcal/lb) were used from Day 0 to 21 (starter feed) and Days 22 to 42 (grower feed), respectively. Treatment premixes were measured and blended into diets at required levels. Between days 0 and 21 mortality was less than 1% with all birds growing optimally and of high health across all groups.
Beginning on study day 22, the study director modulated house temperature and air flow to mimic industry conditions conducive to outbreaks of colibacillosis within naive broiler flocks. This was done to stimulate a natural challenge for this study. Mortality climbed to a house average of approximately 10% by Day 42. A majority of these deaths occurred in groups not receiving BT1583 or MON. Lesions were consistent with those of colibacillosis (air sac, pneumonia, peri-hepatitis, peri-carditis and extreme morbidity). All mortality was documented (weight at death and post-mortem observations). All birds and feeds were weighed at 42 days. All remaining birds were euthanized on Day 42 by asphyxiation with the carcasses submitted for rendering.
The following variables were tested: Response Variables: Gain Per Bird, Feed Per Gain, Mortality (%), Adjusted Feed Per Gain. F test from One Way ANOVA with one blocking factor=location, at Day 42 using 0.05 level of significance.
All Response Variables: LSD T-test procedure for pair-wise comparisons with Type 1 error of means when ANOVA F ratio is significant, overall significance level of 0.05 used. Lines below means (see Table 30, below) indicate groups with insignificant differences in means.
Adjusted Feed/Gain: The total weight of mortality in each pen was added to the final live weight, that value reduced by subtracting the initial weight and then dividing that value into the Total feed consumed to calculate the Adjusted Feed/Gain.

food-producing animals = assay: Growth promotion in food-producing animals (overall statement); assay type: in vivo, chicken
From the text: Furthermore, unlike conventional antibiotics, the present invention may target the bacterial membrane, and there is currently not a drug target that can be altered with one or two mutations to allow development of drug resistance. […] Alternatively, but in no way limiting the present invention, the present invention may be used as an animal-use only antibiotic for bacterial infections. Also, to date, there has been no observed decrease in the growth promoting activity of the peptide.

carboxypeptidase Y = biological target: T1, carboxypeptidase Y (Saccharomyces cerevisiae, UniProt P00729)
T1 sequence (P00729 112-532): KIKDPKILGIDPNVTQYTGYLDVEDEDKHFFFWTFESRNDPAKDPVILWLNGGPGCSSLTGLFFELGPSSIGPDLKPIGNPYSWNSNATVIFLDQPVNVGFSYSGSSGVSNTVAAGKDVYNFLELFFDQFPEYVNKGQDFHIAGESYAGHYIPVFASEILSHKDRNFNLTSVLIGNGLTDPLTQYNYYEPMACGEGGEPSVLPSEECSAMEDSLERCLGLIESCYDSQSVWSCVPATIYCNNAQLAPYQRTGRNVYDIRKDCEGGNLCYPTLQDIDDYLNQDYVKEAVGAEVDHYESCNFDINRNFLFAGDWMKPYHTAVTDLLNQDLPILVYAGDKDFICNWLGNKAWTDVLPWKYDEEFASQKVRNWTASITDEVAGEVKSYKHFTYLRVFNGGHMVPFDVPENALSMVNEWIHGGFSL

[7] = Study 3-2, 12 ppm with Coban (vs Coban alone)
[8] = Study 4-1, 24 ppm with direct coccidial challenge
[9] = Study 4-2, 48 ppm with direct coccidial challenge
[10] = MON 99 ppm, BT1583 12 ppm, BMD 55 ppm, alone or combined

Substance: Me2Bmt-L-dO-I-V-V-dK-V-dL-K-dY-L-Vol [BT1583]
- only known in vitro method to inactivate [1]: pH 1.0 plus 100 °C overnight
- MIC (Gram-positive bacteria): 1 microgram/ml
- MIC (E. coli): > 20 microgram/ml
- MIC (Pseudomonas): > 100 microgram/ml
- MIC (Salmonella): > 100 microgram/ml
- MIC (S. cerevisiae): 50 microgram/ml
- MIC (Tetrahymena): 25 microgram/ml
- Additional weight gain (%) (Broiler Chicken [2]; Study 1-1, 10 ppm): 17%
- Feed conversion improvement (point) (Broiler Chicken [2]; Study 1-1, 10 ppm): 7 point
- Additional weight gain (%) (Broiler Chicken [2]; Study 1-2, 30 ppm): 17%
- Feed conversion improvement (point) (Broiler Chicken [2]; Study 1-2, 30 ppm): 8 point
- Additional weight gain (%) (straight run broilers [3]; Study 2-1, 6 ppm): 6.7%
- Feed conversion improvement (point) (straight run broilers [3]; Study 2-1, 6 ppm): 9 point
- Additional weight gain (%) (straight run broilers [3]; Study 2-2, 12 ppm): 11%
- Feed conversion improvement (point) (straight run broilers [3]; Study 2-2, 12 ppm): 10 point
- 20-day cumulative weight gain, Mean (straight run broilers [3]; Table 9, 6 ppm in feed): 591.9750
- 20-day cumulative weight gain, Mean (straight run broilers [3]; Table 9, 12 ppm in feed): 618.9340
- 20-day cumulative weight gain, estimated marginal Mean (straight run broilers [3]; Table 11, 6 ppm in feed): 591.975
- 20-day cumulative weight gain, estimated marginal Mean (straight run broilers [3]; Table 11, 12 ppm in feed): 618.934
- 20-day cumulative weight gain, Duncan homogeneous subsets (straight run broilers [3]; Table 12, 6 ppm in feed): 591.9750
- 20-day cumulative weight gain, Duncan homogeneous subsets (straight run broilers [3]; Table 12, 12 ppm in feed): 618.9340
- 20-day cumulative feed conversion rate, Mean (straight run broilers [3]; Table 13, 6 ppm in feed): 1.5065
- 20-day cumulative feed conversion rate, Mean (straight run broilers [3]; Table 13, 12 ppm in feed): 1.4959
- 20-day cumulative feed conversion rate, estimated marginal Mean (straight run broilers [3]; Table 15, 6 ppm in feed): 1.506
- 20-day cumulative feed conversion rate, estimated marginal Mean (straight run broilers [3]; Table 15, 12 ppm in feed): 1.496
- 20-day cumulative feed conversion rate, Duncan homogeneous subsets (straight run broilers [3]; Table 16, 6 ppm in feed): 1.5065
- 20-day cumulative feed conversion rate, Duncan homogeneous subsets (straight run broilers [3]; Table 16, 12 ppm in feed): 1.4959
- Additional weight gain (%) (straight run broilers [4]; Study 3-1, 12 ppm): 16%
- Feed conversion improvement (point) (straight run broilers [4]; Study 3-1, 12 ppm): 9 point
- Additional weight gain (%) (straight run broilers [4]; [7]): 5.4%
- Feed conversion improvement (point) (straight run broilers [4]; [7]): 9 point
- 20-day cumulative weight gain, Mean (straight run broilers [4]; Table 18, BT1583 12 ppm, BMD 50 ppm, COB 90 ppm, alone or combined): 831.7396
- 21-day cumulative weight gain, estimated marginal Mean (straight run broilers [4]; Table 20, BT1583 12 ppm, BMD 50 ppm, COB 90 ppm, alone or combined): 831.740
- 21-day cumulative weight gain, Duncan homogeneous subsets (straight run broilers [4]; Table 21, BT1583 12 ppm, BMD 50 ppm, COB 90 ppm, alone or combined): 831.7396
- 20-day cumulative feed conversion rate, Mean (straight run broilers [4]; Table 22, BT1583 12 ppm, BMD 50 ppm, COB 90 ppm, alone or combined): 1.3308
- 21-day cumulative feed conversion rate, estimated marginal Mean (straight run broilers [4]; Table 24, BT1583 12 ppm, BMD 50 ppm, COB 90 ppm, alone or combined): 1.331
- 20-day cumulative feed conversion rate, Duncan homogeneous subsets (straight run broilers [4]; Table 25, BT1583 12 ppm, BMD 50 ppm, COB 90 ppm, alone or combined): 1.3308
- Additional weight gain (%) (Broiler Chicken [5]; [8]): 7.1%
- Feed conversion improvement (point) (Broiler Chicken [5]; [8]): 13 point
- Additional weight gain (%) (Broiler Chicken [5]; [9]): 9.3%
- Feed conversion improvement (point) (Broiler Chicken [5]; [9]): 17 point
- efficacy against colibacillosis ([6]; 3 to 4 week old naive broiler chickens, simulated commercial conditions): highly effective
- feed/gain advantage over monensin and BMD fed alone and in combination ([6]; Day 42): ≥ 10 point
- weight gain advantage over monensin and BMD fed alone and in combination ([6]; Day 42): ≥ 20 point
- Day 42 Feed/Gain [6, 10]: 1.722^ab
- Day 42 Gain/Bird [6, 10]: 4.333^ab lb
- Day 42 Mortality (%) ([6]; acute and chronic colibacillosis, MON 99 ppm, BT1583 12 ppm, BMD 55 ppm): 2.75^a %
- Day 42 Adjusted Feed/Gain ([6]; adjusted for mortality weight, MON 99 ppm, BT1583 12 ppm, BMD 55 ppm): 1.704^ab
- feed conversion improvement (food-producing animals): about 10 points
- cleavage by carboxypeptidase Y (carboxypeptidase Y): resistant
